Results reported in patent publication US8183230B2, “Antimicrobial preservatives to achieve multi-dose formulation using beta-cyclodextrins for liquid dosage forms” (priority 2004, dated 2012).
“Also recorded” adds a separate entry of the source.

Experiments:
[1] = Study A; pH: 4.4, SBE-CD: 10%; compound of Formula Ia at 10 mgA/mL; content: ethanol 15%, meta-cresol 0.3%, propylene glycol 50%, thimerosal 0.01
Experimental: Injection site toleration was measured by inspecting the patient for signs of reaction, including erythema (size); skin thickening (size), pain on palpation and edema. Table VI provides a detailed explanation of the scoring system: a score of 0 (no reaction) to 4 (severe reaction) was given for each characteristic and each injection site daily.
Compound of Formula Ia formulations were evaluated for injection site toleration (hereinafter “IST”).
Formulations were tested in groups of 4 dogs comprised of beagles and mongrels. […] Dogs were observed daily for evidence of reaction at the injection site and a score of 0-4 (see Table VI) was given for each of the following parameters: pain on injection, erythema, tissue thickening, pain on palpation and edema. Dogs were observed daily until day 5 (24 hours after the last dose).

[2] = tested on: Escherichia coli, Pseudomonas aeruginosa, Staphylococcus aureus, Candida albicans, Aspergillus niger; assay: Hybrid USP/Ph. Eur. antimicrobial effectiveness test (AET); type: cell-based
Experimental: Preparation of Preserved Formulations. […] Antimicrobial preservatives with optimal activity at a pH outside the nominal formulation value (pH 4.4) were titrated to either 3.5 or 5.0 using 1 N HCl or 1 N NaOH. A stock solution of either 10% or 5% (weight/volume) SBE-CD containing 10 mgA/mL of the compound of Formula Ia citrate was prepared. Preservative was added to the respective formulation on a weight basis.
Antimicrobial Efficacy Testing. A hybrid USP […]/Ph. Eur. 2000 antimicrobial effectiveness test (AET) was performed, as follows: 20 mL of drug product was individually inoculated with 0.1-0.2 mL of bacterial or fungal culture, per USP/Ph. Eur. compendial requirements. The final concentration of organisms in the test sample was between 1×10^5 and 1×10^6 cfu/mL. At initial 6 hr, 24 hr, 7 day, 14 day, and 28 day time intervals, 1 mL of the inoculated product was transferred into 9 mL of a recovery diluent, that was validated to confirm neutralization of the antimicrobial preservative. One mL of the diluted sample was then transferred to a sterile petri dish and combined with 15-20 mL of an agar broth to culture the organisms. Plates were then incubated for 3 to 5 days, upon which colonies were counted. Initial organism contamination was then calculated based on dilution of the initial sample.
Generally, the USP test requirements are less stringent than Ph. Eur. requirements, which typically have an immediate bacteriocidal activity requirement. The Ph. Eur. requirements shown in Table III have either a “Criteria A” or “Criteria B” specification depending on the rate of microorganism reduction, with criteria A requiring an increased bacteriocidal rate. In order to meet the combined hybrid assay, the initial inoculum count of microorganisms needed to be reduced by the amounts listed in Table V.

[3] = tested on: Escherichia coli, Pseudomonas aeruginosa, Staphylococcus aureus, Candida albicans, Aspergillus niger; details: as indicated by literature; cited from earlier work

Q: Which IST [1] does the source give for `Cc1cccc(O)c1` [meta-cresol] here?
A: The IST was “Good”.

Q: And the reducing the microorganisms [2]?
A: Its reducing the microorganisms is “effective”.

Q: What about the “AET Results Ph. Eur. Criteria A” value ([2]; Study A, pH: 4.4, SBE-CD: 10%, compound of Formula Ia at 10 mgA/mL, content: ethanol 15%, meta-cresol 0.3%, propylene glycol 50%, thimerosal 0.01, cells without ✓ print organism (time point)) of the same molecule?
A: Its value is “s. aur (6, 24 hr); also recorded: c. alb (7 d)”.

Q: And the “Ph. Eur. criteria B” value ([2]; leads of Study B)?
A: Its value is “met criteria B”.

Q: And the “Ph. Eur. criteria A for preservative efficacy” value ([2]; meta-cresol containing formulations)?
A: Its value is “robustly meeting Ph. Eur. criteria A”.

Q: What about the activity against bacteria ([2]; when SBE-CD was present in the formulation) of the same molecule?
A: The activity against bacteria was “greatly diminished”.

Q: And the “USP and Ph. Eur. criteria A or B requirements” value [3]?
A: The value was “met both the USP and either Ph. Eur. criteria A or B requirements”.
